Series [1] in a line: Intrinsic clearance in human liver microsomes. Format: ADME, Microsome. (In general: Liver microsomes are a subcellular fraction often used to study metabolism.)
Series [2] in a line: Equilibrium solubility of the compound at pH 7.4. It counts as physicochemical. As to conditions: buffer.
Series [3] in a line: Ratio of drug level in brain to plasma in mouse at 30 mg/kg, ip after 30 mins. It counts as ADME, organism-based. Also noted: dose 30 mg/kg, route intraperitoneal. The settings on record: read-out: BPR.
Series [4] can be described thus: Plasma concentration in mouse at 30 mg/kg, ip after 30 mins. It counts as ADME, organism-based. More on the design: dose 30 mg/kg, route intraperitoneal.
A short description of series [5]: Plasma concentration in mouse at 10 mg/kg, ip after 30 mins. It counts as ADME, organism-based. Also noted: dose 10 mg/kg, route intraperitoneal.
The nature of series [6]: Ratio of drug level in brain to plasma in mouse at 60 mg/kg, ip after 30 mins. As to conditions: read-out: BPR. It counts as ADME, organism-based. More on the design: dose 60 mg/kg, route intraperitoneal.
Series [7] can be described thus: Plasma concentration in mouse at 60 mg/kg, ip after 30 mins. Format: ADME, organism-based. More on the design: dose 60 mg/kg, route intraperitoneal.
A short description of series [8]: Ratio of drug level in brain to plasma in mouse at 10 mg/kg, ip after 30 mins. As to conditions: read-out: BPR. It counts as ADME, organism-based. More on the design: dose 10 mg/kg, route intraperitoneal.

Values after ≈ are worked out from the molar mass of the structure shown.

Take `COc1cc(F)ccc1-c1cncc(CNCC2CC2)n1`: the intrinsic metabolic clearance (microsomal CLint) in series [1] was found to be 108 µL/min/mg. In series [2], this compound returned a solubility (thermodynamic) of 340 µM (≈ 97.7 µg/mL).
Take `COc1cc(F)ccc1-c1cncc(CNC2CCCC2)c1`: the Kp at 0.5 h in series [3] is 13.6; in series [6], 12.6; in series [8] it was 10.9. Besides, the concentration at 0.5 h in series [4] amounted to 2320 nM; in series [5], 867 nM; in series [7] it was 3370 nM. This compound also returned a microsomal CLint in series [1] of 74 µL/min/mg. The same compound displayed a thermodynamic solubility in series [2] greater than 450 µM.
`COc1cc(F)ccc1-c1cncc(CNC(=O)c2cnccn2)c1`: in series [1], the microsomal CLint is 64 µL/min/mg. For the same compound, in series [2], the thermodynamic solubility turned out to be 63 µM (≈ 21.3 µg/mL).
As for `COc1cc(F)ccc1-c1cncc(CNC(=O)c2ccccn2)c1`, the microsomal CLint in series [1] came out at 45 µL/min/mg.
For the compound `C[C@@H]([C@@H](O)c1ccc(O)cc1)N1CCC(O)(c2ccccc2)CC1` [TRAXOPRODIL], the intrinsic metabolic clearance (microsomal CLint) in series [1] is 37 µL/min/mg. This compound also showed a thermodynamic solubility in series [2] greater than 470 µM.

In general, microsomal CLint refers to the rate of metabolic loss divided by the concentration. For orientation: solubility (thermodynamic) means solubility found after equilibrating the solid with the medium.

(Values after ChEMBL document CHEMBL1777674, “2,6-Disubstituted pyrazines and related analogs as NR2B site antagonists of the NMDA receptor with anti-depressant activity” (Bioorg Med Chem Lett, 2011).)
